The values that follow come from ChEMBL document CHEMBL5465560, “Selectivity Literature for EUbOPEN Chemogenomic Library” (2024).

Assay [1] has as its target Myosin light chain kinase, smooth muscle (Homo sapiens, UniProt Q15746). Briefly: Selectivity interaction (KinomeScan (DiscoverX)) EUB0001079a MYLK. The conditions noted are these: at 1 µM.
The target of assay [2] is Receptor-type tyrosine-protein kinase FLT3 (Homo sapiens) (UniProt P36888). Briefly: Selectivity interaction (Millipore kinase profiler) EUB0000124b FLT3. The conditions noted are these: at 10 µM.
The target in assay [3] is Rho-associated protein kinase 2 (Homo sapiens, UniProt O75116). Briefly: Selectivity interaction (KinomeScan (DiscoverX)) EUB0000092b ROCK2. The conditions noted are these: at 10 µM.
The target of assay [4] is T1, Phosphatidylinositol 3-kinase C2 domain-containing subunit gamma (Homo sapiens) (UniProt O75747).
T1 sequence (whole entry): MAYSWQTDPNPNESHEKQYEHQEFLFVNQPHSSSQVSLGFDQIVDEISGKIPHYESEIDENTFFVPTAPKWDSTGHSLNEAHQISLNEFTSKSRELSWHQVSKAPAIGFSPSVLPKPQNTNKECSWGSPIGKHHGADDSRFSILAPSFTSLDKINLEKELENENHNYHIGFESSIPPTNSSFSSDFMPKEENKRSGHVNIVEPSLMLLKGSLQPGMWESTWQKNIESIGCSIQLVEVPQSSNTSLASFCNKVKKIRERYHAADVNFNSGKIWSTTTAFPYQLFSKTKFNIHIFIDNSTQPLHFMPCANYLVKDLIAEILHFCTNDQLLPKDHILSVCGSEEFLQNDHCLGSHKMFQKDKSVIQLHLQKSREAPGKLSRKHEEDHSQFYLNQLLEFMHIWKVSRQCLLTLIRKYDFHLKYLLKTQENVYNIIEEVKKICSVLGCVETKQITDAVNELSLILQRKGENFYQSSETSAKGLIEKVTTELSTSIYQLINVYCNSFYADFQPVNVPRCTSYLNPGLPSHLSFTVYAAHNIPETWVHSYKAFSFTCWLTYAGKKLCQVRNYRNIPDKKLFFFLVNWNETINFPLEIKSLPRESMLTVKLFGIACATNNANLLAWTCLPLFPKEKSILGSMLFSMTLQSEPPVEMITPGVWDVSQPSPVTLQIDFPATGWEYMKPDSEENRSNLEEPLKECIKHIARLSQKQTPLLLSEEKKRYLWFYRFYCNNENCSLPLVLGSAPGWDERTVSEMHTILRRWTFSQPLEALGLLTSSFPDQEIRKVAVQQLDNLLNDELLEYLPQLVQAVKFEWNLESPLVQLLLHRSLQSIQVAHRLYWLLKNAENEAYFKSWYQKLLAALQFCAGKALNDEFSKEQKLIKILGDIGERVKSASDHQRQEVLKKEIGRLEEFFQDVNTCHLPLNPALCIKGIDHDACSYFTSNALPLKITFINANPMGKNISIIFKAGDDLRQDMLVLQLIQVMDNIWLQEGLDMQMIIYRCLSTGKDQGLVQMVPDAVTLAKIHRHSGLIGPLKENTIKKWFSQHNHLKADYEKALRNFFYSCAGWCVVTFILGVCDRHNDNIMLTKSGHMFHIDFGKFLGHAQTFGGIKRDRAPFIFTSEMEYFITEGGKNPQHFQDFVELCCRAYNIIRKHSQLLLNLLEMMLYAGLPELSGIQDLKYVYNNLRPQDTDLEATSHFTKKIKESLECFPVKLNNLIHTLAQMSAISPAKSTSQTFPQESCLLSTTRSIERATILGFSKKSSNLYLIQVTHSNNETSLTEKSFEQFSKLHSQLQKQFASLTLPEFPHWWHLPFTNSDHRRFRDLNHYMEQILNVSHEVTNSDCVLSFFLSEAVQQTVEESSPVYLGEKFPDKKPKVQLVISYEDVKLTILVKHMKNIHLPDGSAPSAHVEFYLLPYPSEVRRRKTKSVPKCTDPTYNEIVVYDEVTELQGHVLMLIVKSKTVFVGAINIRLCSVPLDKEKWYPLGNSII
The experiment in a line: Selectivity interaction (Adapta Assay) EUB0001632a PIK3C2G. The conditions noted are these: at 10 µM.

Assay [5] deals with Cyclin-dependent kinase 2 (Homo sapiens, UniProt P24941). The experiment in a line: Selectivity interaction (KinomeScan (DiscoverX)) EUB0000229b CDK2. Particulars: at 10 µM.
Assay [6] has as its target Mitogen-activated protein kinase kinase kinase kinase 4 (Homo sapiens, UniProt O95819). Briefly: Selectivity interaction (Kinase panel (KiNativ target engagement assay in Jurkat cells)) EUB0001635a MAP4K4. It counts as cell-based. Particulars: Selectivity number of off-targets 0.0, Selectivity number of targets 233.0, Source Knowledge https://www.sciencedirect.com/science/article/pii/S2451945619300674?via%3Dihub, at 1 µM.

Chain of Rho-associated protein kinase 2 (O75116 whole entry, looked up, the tested form may be a part): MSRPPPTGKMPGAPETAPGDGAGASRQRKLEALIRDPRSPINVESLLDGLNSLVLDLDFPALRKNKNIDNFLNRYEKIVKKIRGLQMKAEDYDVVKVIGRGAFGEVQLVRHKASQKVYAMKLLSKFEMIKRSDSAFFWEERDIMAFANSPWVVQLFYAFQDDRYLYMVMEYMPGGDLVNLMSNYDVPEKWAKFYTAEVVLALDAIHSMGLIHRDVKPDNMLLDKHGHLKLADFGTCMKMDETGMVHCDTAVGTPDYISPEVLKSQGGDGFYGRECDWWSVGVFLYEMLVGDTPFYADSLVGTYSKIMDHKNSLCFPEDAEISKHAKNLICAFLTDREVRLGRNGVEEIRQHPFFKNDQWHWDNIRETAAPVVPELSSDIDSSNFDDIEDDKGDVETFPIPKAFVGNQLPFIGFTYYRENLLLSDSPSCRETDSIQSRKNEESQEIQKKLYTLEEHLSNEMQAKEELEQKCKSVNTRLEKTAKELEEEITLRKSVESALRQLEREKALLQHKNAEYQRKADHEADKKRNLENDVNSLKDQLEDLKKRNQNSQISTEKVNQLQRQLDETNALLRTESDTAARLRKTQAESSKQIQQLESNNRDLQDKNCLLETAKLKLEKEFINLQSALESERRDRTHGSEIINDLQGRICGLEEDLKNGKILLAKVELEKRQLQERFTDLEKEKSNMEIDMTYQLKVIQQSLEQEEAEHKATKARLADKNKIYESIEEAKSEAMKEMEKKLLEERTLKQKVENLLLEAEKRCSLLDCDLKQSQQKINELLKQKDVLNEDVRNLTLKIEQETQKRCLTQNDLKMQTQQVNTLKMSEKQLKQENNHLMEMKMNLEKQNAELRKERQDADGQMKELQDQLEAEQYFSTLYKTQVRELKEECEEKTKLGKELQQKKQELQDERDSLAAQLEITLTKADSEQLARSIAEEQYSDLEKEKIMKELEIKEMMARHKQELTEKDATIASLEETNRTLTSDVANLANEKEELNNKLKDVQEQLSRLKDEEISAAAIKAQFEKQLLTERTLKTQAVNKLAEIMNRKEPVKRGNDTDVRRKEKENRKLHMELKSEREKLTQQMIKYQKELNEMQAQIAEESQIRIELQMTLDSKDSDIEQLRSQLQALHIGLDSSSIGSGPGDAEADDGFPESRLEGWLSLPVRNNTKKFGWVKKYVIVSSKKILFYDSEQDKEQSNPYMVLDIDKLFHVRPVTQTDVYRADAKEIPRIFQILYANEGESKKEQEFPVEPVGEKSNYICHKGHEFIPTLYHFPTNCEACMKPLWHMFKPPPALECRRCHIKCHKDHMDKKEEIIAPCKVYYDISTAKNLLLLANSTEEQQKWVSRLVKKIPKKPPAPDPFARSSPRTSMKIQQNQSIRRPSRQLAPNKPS
Chain of Myosin light chain kinase, smooth muscle (Q15746 whole entry): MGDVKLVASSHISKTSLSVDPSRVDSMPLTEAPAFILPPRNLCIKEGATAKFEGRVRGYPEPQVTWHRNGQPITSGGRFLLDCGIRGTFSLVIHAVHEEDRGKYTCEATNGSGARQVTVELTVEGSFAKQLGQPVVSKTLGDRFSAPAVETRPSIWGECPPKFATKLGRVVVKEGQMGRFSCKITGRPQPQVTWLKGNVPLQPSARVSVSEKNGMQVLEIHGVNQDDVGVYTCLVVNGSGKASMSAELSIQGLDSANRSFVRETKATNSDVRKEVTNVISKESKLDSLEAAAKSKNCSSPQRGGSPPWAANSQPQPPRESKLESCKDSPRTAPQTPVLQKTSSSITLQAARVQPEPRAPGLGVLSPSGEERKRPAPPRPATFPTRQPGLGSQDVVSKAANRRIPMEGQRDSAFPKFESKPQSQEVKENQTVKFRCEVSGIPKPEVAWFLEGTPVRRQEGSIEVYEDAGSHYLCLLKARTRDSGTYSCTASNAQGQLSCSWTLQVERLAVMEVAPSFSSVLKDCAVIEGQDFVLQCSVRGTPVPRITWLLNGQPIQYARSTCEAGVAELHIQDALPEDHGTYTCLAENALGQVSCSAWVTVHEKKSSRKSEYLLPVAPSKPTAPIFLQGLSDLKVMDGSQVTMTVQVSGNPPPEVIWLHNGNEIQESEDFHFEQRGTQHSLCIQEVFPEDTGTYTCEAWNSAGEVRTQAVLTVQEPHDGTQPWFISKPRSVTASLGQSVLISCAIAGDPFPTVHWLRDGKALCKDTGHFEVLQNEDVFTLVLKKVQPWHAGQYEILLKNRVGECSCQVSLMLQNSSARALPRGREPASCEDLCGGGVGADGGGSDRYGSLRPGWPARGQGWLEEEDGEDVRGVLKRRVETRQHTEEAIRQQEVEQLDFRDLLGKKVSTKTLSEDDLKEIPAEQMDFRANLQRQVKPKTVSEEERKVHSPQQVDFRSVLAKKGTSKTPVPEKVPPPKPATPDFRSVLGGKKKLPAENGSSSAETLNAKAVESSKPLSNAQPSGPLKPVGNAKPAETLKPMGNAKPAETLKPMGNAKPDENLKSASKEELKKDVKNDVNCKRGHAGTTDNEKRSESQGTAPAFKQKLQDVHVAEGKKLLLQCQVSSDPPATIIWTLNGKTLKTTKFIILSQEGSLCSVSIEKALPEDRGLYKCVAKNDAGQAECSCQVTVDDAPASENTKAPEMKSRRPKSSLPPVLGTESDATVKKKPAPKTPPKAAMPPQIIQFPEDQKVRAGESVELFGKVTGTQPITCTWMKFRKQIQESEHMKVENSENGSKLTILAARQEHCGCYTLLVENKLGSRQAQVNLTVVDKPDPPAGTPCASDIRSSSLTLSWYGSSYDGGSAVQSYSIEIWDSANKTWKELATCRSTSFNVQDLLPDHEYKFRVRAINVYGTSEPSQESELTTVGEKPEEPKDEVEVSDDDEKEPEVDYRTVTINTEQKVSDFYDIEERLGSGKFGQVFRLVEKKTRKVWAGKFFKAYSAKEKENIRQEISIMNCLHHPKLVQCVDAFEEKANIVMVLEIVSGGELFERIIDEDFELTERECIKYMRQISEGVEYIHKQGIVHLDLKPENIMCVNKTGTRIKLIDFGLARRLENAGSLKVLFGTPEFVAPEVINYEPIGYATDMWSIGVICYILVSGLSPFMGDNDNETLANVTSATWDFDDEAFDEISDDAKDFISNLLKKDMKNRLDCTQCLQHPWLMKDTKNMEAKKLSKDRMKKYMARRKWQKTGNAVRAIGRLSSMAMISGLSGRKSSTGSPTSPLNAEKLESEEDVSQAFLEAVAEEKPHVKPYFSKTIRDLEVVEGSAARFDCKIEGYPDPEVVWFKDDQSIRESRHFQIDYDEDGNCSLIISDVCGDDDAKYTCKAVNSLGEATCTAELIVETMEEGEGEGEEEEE
Chain of Mitogen-activated protein kinase kinase kinase kinase 4 (O95819 2-1239 limits assumed): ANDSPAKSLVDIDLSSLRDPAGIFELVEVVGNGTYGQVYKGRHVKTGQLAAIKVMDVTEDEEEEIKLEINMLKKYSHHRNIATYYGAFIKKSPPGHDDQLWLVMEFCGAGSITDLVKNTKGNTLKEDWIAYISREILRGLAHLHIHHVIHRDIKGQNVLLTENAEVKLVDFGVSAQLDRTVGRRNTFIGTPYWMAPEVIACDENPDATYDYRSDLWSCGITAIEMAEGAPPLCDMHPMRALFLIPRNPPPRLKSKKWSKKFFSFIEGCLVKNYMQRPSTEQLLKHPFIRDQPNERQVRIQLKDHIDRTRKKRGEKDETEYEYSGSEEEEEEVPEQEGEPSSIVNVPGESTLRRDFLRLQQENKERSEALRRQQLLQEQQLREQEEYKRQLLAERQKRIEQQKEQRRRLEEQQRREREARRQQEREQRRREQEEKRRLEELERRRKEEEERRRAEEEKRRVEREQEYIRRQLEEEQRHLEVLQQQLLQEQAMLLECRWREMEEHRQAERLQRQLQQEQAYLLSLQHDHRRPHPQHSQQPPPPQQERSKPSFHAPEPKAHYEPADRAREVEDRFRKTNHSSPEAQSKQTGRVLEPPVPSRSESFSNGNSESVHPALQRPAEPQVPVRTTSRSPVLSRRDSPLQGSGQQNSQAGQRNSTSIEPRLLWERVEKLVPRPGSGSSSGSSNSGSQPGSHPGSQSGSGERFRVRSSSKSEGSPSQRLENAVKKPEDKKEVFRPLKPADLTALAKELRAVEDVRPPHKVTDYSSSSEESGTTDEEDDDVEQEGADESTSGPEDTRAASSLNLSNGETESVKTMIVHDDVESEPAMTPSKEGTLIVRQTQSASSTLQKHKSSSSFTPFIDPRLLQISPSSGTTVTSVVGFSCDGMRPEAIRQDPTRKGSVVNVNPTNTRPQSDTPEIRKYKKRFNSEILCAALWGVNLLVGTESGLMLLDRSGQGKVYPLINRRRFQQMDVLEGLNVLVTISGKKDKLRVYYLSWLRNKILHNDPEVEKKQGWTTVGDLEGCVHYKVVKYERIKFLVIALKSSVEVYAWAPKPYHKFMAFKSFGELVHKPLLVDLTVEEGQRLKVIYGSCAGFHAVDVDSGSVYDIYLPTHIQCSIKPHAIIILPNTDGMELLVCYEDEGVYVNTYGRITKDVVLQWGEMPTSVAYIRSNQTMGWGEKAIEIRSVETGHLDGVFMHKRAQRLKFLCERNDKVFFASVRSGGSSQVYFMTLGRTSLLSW

In the case of `Nc1cnc(N2CCc3cc(S(=O)(=O)Nc4c(F)cc(Cl)cc4F)cc(N4CCCC4=O)c32)nc1` [TP-020n], the % of control in assay [1] worked out at 91%.

On to `CC(=O)Nc1cccc(-n2c(=O)n(C3CC3)c(=O)c3c(Nc4ccc(I)cc4F)n(C)c(=O)c(C)c32)c1`, for which the % of control in assay [2] stood at 107%.

In turn, `CCC(=O)N1CCN(c2ccc(-n3c(=O)ccc4cnc5ccc(-c6cnc7ccccc7c6)cc5c43)cc2C(F)(F)F)CC1` came in with a % of control in assay [3] of 50%.

`Cn1cc(-n2cnc3c(NCc4nc5cc(Cl)c(Cl)cc5[nH]4)nc(N4CCOCC4)nc32)cn1`: the % of inhibition in assay [4] was -0.366%.

In the case of `COc1cc(N(C)c2ccnc3ccc(C(F)(F)F)cc23)cc(OC)c1OC`, the % binding in assay [5] came to 100%.

Consider `C=CC(=O)Nc1ccc(C(=O)Nc2[nH]nc3c2CN(C(=O)N[C@H](CN(C)C)c2ccccc2)C3(C)C)cc1`, for which the % of engagement in assay [6] was -15.4%.
